Patent publication US20250171495A1, “MUTLI-TARGETED SERINE PROTEASE INHIBITORS FOR TREATMENT OF CANCER AND VIRAL INFECTION” (Washington University, priority 2023, published 2025)

Tests used:
Assay type in all cases: biochemical
[1] = target: T1, matriptase (Homo sapiens, UniProt Q9Y5Y6); assay: HyCoSuL P4-P2 substrate specificity screening, matriptase; details: for P2 Position Substrate Activity for matriptase (percent substrate cleavage/proteolysis): residue fixed at P2 position; for P3 Position Various Amino Acids Substrate Activity, matriptase (percent substrate cleavage/proteolysis): residue fixed at P3 position of substrate library; for P4 Position Various Amino Acids Substrate Activity, matriptase (percent substrate proteolysis/cleavage): residue fixed at P4 position of substrate library
T1 sequence (Q9Y5Y6 1-855): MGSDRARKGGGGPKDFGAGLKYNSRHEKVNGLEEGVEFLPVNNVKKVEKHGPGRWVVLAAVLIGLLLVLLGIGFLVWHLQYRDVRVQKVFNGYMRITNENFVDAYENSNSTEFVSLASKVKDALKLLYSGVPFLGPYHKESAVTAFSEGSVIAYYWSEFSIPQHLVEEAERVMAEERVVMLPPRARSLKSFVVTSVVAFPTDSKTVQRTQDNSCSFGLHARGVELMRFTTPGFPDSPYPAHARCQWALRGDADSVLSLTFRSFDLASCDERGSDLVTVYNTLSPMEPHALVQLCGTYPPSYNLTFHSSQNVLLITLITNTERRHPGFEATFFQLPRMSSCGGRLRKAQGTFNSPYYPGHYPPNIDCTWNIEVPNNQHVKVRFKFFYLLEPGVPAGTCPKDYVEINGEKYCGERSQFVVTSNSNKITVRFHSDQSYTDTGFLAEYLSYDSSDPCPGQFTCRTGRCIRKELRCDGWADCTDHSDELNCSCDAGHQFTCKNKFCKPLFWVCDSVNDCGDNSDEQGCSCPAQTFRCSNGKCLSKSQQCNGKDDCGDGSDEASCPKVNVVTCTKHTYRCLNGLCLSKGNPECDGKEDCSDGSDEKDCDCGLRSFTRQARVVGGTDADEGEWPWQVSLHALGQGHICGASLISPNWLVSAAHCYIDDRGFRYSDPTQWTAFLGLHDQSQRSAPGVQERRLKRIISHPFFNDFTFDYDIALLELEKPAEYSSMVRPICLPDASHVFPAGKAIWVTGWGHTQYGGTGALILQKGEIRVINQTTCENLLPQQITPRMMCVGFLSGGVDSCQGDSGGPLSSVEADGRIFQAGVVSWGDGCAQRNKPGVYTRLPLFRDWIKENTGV

[2] = target: T2, hepsin (Homo sapiens, UniProt P05981); assay: HyCoSuL P4-P2 substrate specificity screening, hepsin; details: for P2 Position Substrate Activity for hepsin (percent substrate cleavage/proteolysis): residue fixed at P2 position; for P3 Position Various Amino Acids Substrate Activity, hepsin (percent substrate cleavage/proteolysis): residue fixed at P3 position of substrate library; for P4 Position Various Amino Acids Substrate Activity, hepsin (percent substrate proteolysis/cleavage): residue fixed at P4 position of substrate library
T2 construct: purchased R&D Systems 4776-SE-010

[3] = target: TMPRSS2 (Homo sapiens, UniProt O15393); assay: PS-SCL / HyCoSuL substrate specificity screening, TMPRSS2; details: for P2 Position Substrate Activity for TMPRSS2 (percent substrate cleavage/proteolysis): residue fixed at P2 position of substrate library; for P4 Position Various Amino Acids Substrate Activity, TMPRSS2 (percent substrate proteolysis/cleavage): residue fixed at P4 position of substrate library
[4] = target: T3, HGFA (Homo sapiens, UniProt Q04756); assay: HyCoSuL P4-P2 substrate specificity screening, HGFA; details: for P2 Position Substrate Activity for HGFA (percent substrate cleavage/proteolysis): residue fixed at P2 position; for P3 Position Various Amino Acids Substrate Activity, HGFA (percent substrate cleavage/proteolysis): residue fixed at P3 position of substrate library; for P4 Position Various Amino Acids Substrate Activity, HGFA (percent substrate proteolysis/cleavage): residue fixed at P4 position of substrate library
T3 sequence (Q04756 373-655): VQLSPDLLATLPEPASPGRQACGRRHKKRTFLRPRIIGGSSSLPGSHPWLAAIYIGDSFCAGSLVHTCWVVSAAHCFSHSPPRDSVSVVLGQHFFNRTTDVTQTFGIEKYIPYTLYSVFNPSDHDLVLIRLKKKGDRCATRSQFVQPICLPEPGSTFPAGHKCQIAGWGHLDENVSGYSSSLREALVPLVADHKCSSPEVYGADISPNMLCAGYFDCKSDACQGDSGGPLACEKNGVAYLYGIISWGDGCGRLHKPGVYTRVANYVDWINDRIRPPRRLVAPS

[5] = P1-Arg HyCoSuL, 100 μM, best recognized amino acid set to 100%
[6] = best recognized amino acid set to 100%
[7] = residue fixed at P3 position of substrate library
[8] = residue fixed at P3 position, P1-Arg HyCoSuL, 100 μM, best recognized amino acid set to 100%

T2 sequence (P05981 163-417 limits assumed): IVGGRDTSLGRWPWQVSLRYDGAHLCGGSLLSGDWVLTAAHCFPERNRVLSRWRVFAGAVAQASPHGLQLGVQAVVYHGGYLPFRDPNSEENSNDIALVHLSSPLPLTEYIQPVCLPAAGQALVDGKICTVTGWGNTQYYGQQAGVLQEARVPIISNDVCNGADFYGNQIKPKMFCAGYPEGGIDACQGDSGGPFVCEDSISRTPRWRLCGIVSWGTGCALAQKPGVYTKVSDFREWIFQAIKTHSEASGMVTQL
T2 sequence (P05981 1-162 partner limits assumed): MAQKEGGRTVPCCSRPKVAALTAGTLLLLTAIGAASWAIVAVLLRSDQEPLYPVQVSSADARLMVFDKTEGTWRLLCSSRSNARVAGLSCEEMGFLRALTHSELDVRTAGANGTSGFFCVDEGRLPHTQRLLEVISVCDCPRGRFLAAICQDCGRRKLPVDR
Sequence of TMPRSS2 (O15393 whole entry): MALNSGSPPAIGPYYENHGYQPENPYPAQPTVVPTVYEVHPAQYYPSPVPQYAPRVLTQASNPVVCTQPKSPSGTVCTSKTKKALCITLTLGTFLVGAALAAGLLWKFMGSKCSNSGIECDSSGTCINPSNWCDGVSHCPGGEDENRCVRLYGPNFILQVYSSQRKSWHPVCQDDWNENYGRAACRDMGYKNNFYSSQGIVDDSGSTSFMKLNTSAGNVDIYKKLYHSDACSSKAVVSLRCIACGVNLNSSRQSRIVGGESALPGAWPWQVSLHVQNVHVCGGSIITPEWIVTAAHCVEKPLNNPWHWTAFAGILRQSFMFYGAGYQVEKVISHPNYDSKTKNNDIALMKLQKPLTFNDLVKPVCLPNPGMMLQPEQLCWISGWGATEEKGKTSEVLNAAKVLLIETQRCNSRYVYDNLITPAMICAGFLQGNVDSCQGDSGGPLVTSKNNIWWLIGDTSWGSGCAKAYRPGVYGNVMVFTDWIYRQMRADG

Substance | P2 Position Substrate Activity for matriptase (percent substrate cleavage/proteolysis) [1, 5] [%] | P3 Position Various Amino Acids Substrate Activity, matriptase (percent substrate cleavage/proteolysis) [1] [%] | P4 Position Various Amino Acids Substrate Activity, matriptase (percent substrate proteolysis/cleavage) [1] [%] | P2 Position Substrate Activity for hepsin (percent substrate cleavage/proteolysis) [2, 5] [%] | P3 Position Various Amino Acids Substrate Activity, hepsin (percent substrate cleavage/proteolysis) [2] [%] | P4 Position Various Amino Acids Substrate Activity, hepsin (percent substrate proteolysis/cleavage) [2] [%] | P2 Position Substrate Activity for TMPRSS2 (percent substrate cleavage/proteolysis) [3, 6] [%] | P3 Position Various Amino Acids Substrate Activity, TMPRSS2 (percent substrate cleavage/proteolysis) [3, 7] [%] | P4 Position Various Amino Acids Substrate Activity, TMPRSS2 (percent substrate proteolysis/cleavage) [3] [%] | P2 Position Substrate Activity for HGFA (percent substrate cleavage/proteolysis) [4, 5] [%] | P3 Position Various Amino Acids Substrate Activity, HGFA (percent substrate cleavage/proteolysis) [4] [%] | P4 Position Various Amino Acids Substrate Activity, HGFA (percent substrate proteolysis/cleavage) [4] [%] | P3 Position Substrate Activity for matriptase (percent substrate cleavage/proteolysis) [1, 8] [%] | P3 Position Substrate Activity for hepsin (percent substrate cleavage/proteolysis) [2, 8] [%] | P3 Position Substrate Activity for TMPRSS2 (percent substrate cleavage/proteolysis) ([3]; residue fixed at P3 position of substrate library, best recognized amino acid set to 100%) [%] | P3 Position Substrate Activity for HGFA (percent substrate cleavage/proteolysis) [4, 8] [%]
D-Asn | 0 | 2 | 7 | 0.00 | 38.75 | 18.48 | 0.00 | 0.00 | 19.65 | 0.00 | 15.16 | 7.38 | – | – | – | –
D-Asp | 0 | 0 | 1 | 0.00 | 17.18 | 1.98 | 0.00 | 20.28 | 18.22 | 0.00 | 5.37 | 2.25 | – | – | – | –
D-Gln | 0 | 7 | 7 | 0.00 | – | 20.13 | 0.00 | – | 20.76 | 0.00 | – | 8.03 | 7.43 | 97.80 | 10.18 | 13.84
D-Glu | 0 | 2 | 1 | 0.00 | 34.55 | 2.98 | 0.00 | 12.50 | 23.68 | 0.00 | 3.61 | 2.62 | – | – | – | –
D-His | 0 | 3 | 7 | 0.00 | 40.09 | 19.33 | 0.00 | 6.35 | 24.51 | 0.00 | 11.09 | 7.79 | – | – | – | –
